One assay concerns the target Cannabinoid receptor (Rattus norvegicus, UniProt Q9QZN9+P20272). Nature of the assay: Compound was evaluated for the inhibition of [3H]WIN-55212-2 binding in rat cerebellum membranes. In kind it is cell membranes, Membrane.
The species entered for the next assay is Mus musculus. The assay is described as follows: In vitro inhibition of electrically induced contractions in isolated mouse vas deferens (MVD) preparations. The format is functional.
For assay [1], the target named is T1, Cannabinoid receptor (Rattus norvegicus) (UniProt Q9QZN9+P20272). Nature of the assay: Compound was evaluated for the inhibition of [3H]WIN-55212-2 binding in rat cerebellum membranes at the concentration 1000 nM. The format is cell membranes. The note with it: Membrane.
For assay [2], the target named is T1, Cannabinoid receptor (Rattus norvegicus). Nature of the assay: Compound was evaluated for the inhibition of [3H]WIN-55212-2 binding in rat cerebellum membranes at the concentration 3000 nM. The format is cell membranes. The conditions noted are these: Membrane.

Structures are written as SMILES.

T1 sequence (P20272 whole entry, looked up): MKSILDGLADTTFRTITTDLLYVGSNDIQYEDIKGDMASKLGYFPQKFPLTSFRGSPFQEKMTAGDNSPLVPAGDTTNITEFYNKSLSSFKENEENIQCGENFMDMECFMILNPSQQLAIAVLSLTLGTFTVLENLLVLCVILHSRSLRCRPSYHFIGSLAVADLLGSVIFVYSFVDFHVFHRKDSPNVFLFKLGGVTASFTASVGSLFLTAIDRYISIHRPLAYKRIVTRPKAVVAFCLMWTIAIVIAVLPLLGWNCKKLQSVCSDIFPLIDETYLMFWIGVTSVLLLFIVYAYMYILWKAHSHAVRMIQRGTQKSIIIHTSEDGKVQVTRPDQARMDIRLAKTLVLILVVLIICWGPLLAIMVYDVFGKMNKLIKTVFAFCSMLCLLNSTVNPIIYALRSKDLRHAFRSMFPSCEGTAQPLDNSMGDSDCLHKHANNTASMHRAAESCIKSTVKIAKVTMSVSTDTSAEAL
T1 sequence (Q9QZN9 whole entry, looked up): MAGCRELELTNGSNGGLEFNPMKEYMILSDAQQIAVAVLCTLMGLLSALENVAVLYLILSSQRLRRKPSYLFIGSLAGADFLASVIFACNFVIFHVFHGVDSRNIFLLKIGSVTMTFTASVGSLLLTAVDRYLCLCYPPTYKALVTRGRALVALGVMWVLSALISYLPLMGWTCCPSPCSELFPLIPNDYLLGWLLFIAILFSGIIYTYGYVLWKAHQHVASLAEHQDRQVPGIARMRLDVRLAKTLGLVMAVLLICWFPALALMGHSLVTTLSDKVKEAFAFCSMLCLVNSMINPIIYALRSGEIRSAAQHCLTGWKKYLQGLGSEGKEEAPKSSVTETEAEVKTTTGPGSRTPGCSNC

Regarding `CN1CCCCC1Cn1cc(C(=O)c2cccc3ccccc23)c2ccccc21` (centres undefined), the IC50 was determined as 1.22 nM at Cannabinoid receptor and 0.47 nM in the assay filed under Mus musculus.
For the molecule `COc1ccc(C(=O)c2cn(CC3CCCN3C)c3ccccc23)cc1` (centres undefined), in the assay listed under Mus musculus, the IC50 was 8 nM.
In the case of `CN1CCOCC1Cn1cc(C(=O)c2cccc3ccccc23)c2ccccc21` (centres undefined), the IC50 at Cannabinoid receptor came out at 3 nM; in the assay listed under Mus musculus, 0.4 nM.
For `COc1ccc(C(=O)c2cn(CC3CCCCN3C)c3ccccc23)cc1` (centres undefined), in that order: 9.7 nM and 2.6 nM.
Consider `COc1ccc(C(=O)c2c(C)n(CCC3CCCCN3C)c3ccccc23)cc1` (centres undefined), for which the IC50 in the assay listed under Mus musculus was > 10000 nM.
In the case of `COc1ccc(C(=O)c2c(C)n(C3CCCN(C)C3)c3ccccc23)cc1` (centres undefined), the Inhibition in the assay listed under Mus musculus was 80%.
Regarding `COc1ccc(C(=O)c2c(C)n(CC3CCCCN3C)c3ccccc23)cc1` (centres undefined), the IC50 was 699 nM at Cannabinoid receptor and 134 nM in the assay listed under Mus musculus.
For the molecule `COc1ccc(C(=O)c2c(C)n(CC3CSCCN3C)c3ccccc23)cc1` (centres undefined), the inhibition in assay [1] turned out to be 40%. In addition, inhibition in the assay listed under Mus musculus was half-maximal at 1150 nM (IC50).
As for `O=C(c1cccc2ccccc12)c1cn(CC2CCCCN2)c2ccccc12` (centres undefined), the IC50 on Cannabinoid receptor amounted to 6.6 nM; in the assay listed under Mus musculus it was 3 nM.
For `COc1ccc(C(=O)c2c(C)n(C[C@@H]3CCCN3C)c3ccccc23)cc1`, the concentration for half-maximal inhibition (IC50) came out at 497 nM on Cannabinoid receptor and 37 nM in the assay listed under Mus musculus.
For `COc1ccc(C(=O)c2c(C)n(C3CCN(C)CC3)c3ccccc23)cc1`, the IC50 in the assay listed under Mus musculus was > 10000 nM.
On Cannabinoid receptor, `O=C(c1cccc2ccccc12)c1cn(CCN2CCOCC2)c2ccccc12` showed an IC50 of 7.8 nM.
On to `COc1ccc(C(=O)c2c(C)n(CC3C[S+]([O-])CCN3C)c3ccccc23)cc1` (centres undefined), for which, in assay [1], the inhibition is -10%. For the same molecule, the IC50 in the assay listed under Mus musculus was > 10000 nM.
Turning to `Cc1c(C(=O)c2cccc3ccccc23)c2ccccc2n1CC1CCCCN1C` (centres undefined), the values for the IC50 at Cannabinoid receptor and in the assay filed under Mus musculus were 5.4 nM and 1.2 nM, respectively.
On to `CCN1CCCC1Cn1c(C)c(C(=O)c2ccc(OC)cc2)c2ccccc21` (centres undefined), for which the 50% inhibitory concentration (IC50) in the assay listed under Mus musculus was > 10000 nM.
For `COc1ccc(C(=O)c2c(C)n(CC3CCCN3C)c3ccccc23)cc1` (centres undefined), the inhibition in assay [1] was 53%. Besides, the half-maximal inhibitory concentration (IC50) in the assay listed under Mus musculus was 63 nM.
For the molecule `COc1ccc(C(=O)c2c(C)n(CC3CCCN3)c3ccccc23)cc1` (centres undefined), inhibition in the assay listed under Mus musculus was half-maximal at 220 nM (IC50).
`COc1ccc(C(=O)c2c(C)n(CC3CCCN(C)C3)c3ccccc23)cc1` (centres undefined): in the assay filed under Mus musculus, the IC50 is > 10000 nM.
Turning to `COc1ccc(C(=O)c2c(C)n(C[C@H]3CCCN3C)c3ccccc23)cc1`, the inhibition in assay [1] came out at 7%. In addition, the Inhibition in the assay listed under Mus musculus was 80%.
`COc1ccc(C(=O)c2c(C)n(CC3CN(C)CCN3C)c3ccccc23)cc1` (centres undefined): the inhibition in assay [1] is -8%. The IC50 in the assay filed under Mus musculus is 1430 nM.
With `COc1ccc(C(=O)c2c(C)n(CC3COCCN3C)c3ccccc23)cc1` (centres undefined), the inhibition in assay [2] worked out at 43%. The molecule further had an IC50 in the assay filed under Mus musculus of 210 nM.
Consider `COc1ccc(C(=O)c2c(C)n(CC3CN(C)CCO3)c3ccccc23)cc1` (centres undefined), for which the IC50 in the assay filed under Mus musculus is > 10000 nM.
Consider `Cc1c(C(=O)c2cccc3ccccc23)c2ccccc2n1CC1CCCN1C` (centres undefined), for which the IC50 at Cannabinoid receptor was determined as 6.5 nM; in the assay filed under Mus musculus, 2.4 nM.
On the same counts, the results for `CN1CCN(C)C(Cn2cc(C(=O)c3cccc4ccccc34)c3ccccc32)C1` (centres undefined) are 51 nM and 15 nM.

One may read the IC50 as the point on the concentration scale where inhibition reaches its midpoint. As a reminder, the Inhibition is the drop in the measured response relative to a control, in per cent. A high value points to a response far below the control. As a reminder, the inhibition is the drop in the measured response relative to a control, in per cent.

For the origin of these results see ChEMBL document CHEMBL1128901, “C-Attached aminoalkylindoles: potent cannabinoid mimetics” (Bioorg Med Chem Lett, 1996).
